Results on seven molecules are retold here after patent publication US8865935B2, “Purification methods for betulonic acid and Boc-lysinated betulonic acid, and organic synthesis of betulonic acid amides with piperazine derivatives” (priority 2011, dated 2014).

Data set [1] has as its system Stenotrophomonas nitritireducens KACC 10891T. The experiment in a line: antibacterial test, paper disc diffusion method. The data set is classed as cell-based. The following applies: paper disc (diameter 8 mm) wetted with 60 μL of 1 mg/mL sample in DMSO on agar plate; test repeated three times. The protocol: (§1) An antibacterial test was carried out using the above-mentioned paper disc diffusion method. Betulonic acid amide was dissolved in DMSO to make a sample having a concentration of 1 mg/mL. A filter paper (diameter: 8 mm, manufactured by Advantec, Toyo Roshi Kaisha, Japan) wetted with 60 μL of the sample was attached to an agar plate, and then a circumference, around which bacteria were not cultivated, was measured. DMSO was used as a negative control, and gentamicin was used as a positive control. The antibacterial test was repeatedly carried out three times.
For orientation: A growth-free zone around the sample is the usual read-out of agar diffusion tests.

The subject of data set [2] is Ochrobactrum intermedium KACC 11952T. The experiment in a line: antibacterial test, paper disc diffusion method. Type of data set: cell-based. As to conditions: paper disc (diameter 8 mm) wetted with 60 μL of 1 mg/mL sample in DMSO on agar plate, test repeated three times. The protocol:
as §1

In data set [3] the test system is Ochrobactrum anthropi KCTC 22833T. Put plainly: antibacterial test, paper disc diffusion method. The data set is classed as cell-based. As to conditions: paper disc (diameter 8 mm) wetted with 60 μL of 1 mg/mL sample in DMSO on agar plate, test repeated three times. On the procedure: as §1
Data set [4] concerns Stenotrophomonas maltophilia KCTC 1773T. The experiment in a line: antibacterial test, paper disc diffusion method. The data set is classed as cell-based. The following applies: for Antibacterial zone of inhibition (mm) S. maltophila: paper disc (diameter 8 mm) wetted with 60 μL of 1 mg/mL sample in DMSO on agar plate, test repeated three times. On the procedure: as §1
Another data set deals with four kinds of bacteria. Put plainly: antibacterial test, paper disc diffusion method, all strains. The following applies: from Table 3, 1 mg/mL sample. Type of data set: cell-based. The protocol:
An antibacterial test was carried out using the above-mentioned paper disc diffusion method. Betulonic acid amide was dissolved in DMSO to make a sample having a concentration of 1 mg/mL. A filter paper (diameter: 8 mm, manufactured by Advantec, Toyo Roshi Kaisha, Japan) wetted with 60 μL of the sample was attached to an agar plate, and then a circumference, around which bacteria were not cultivated, was measured. DMSO was used as a negative control, and gentamicin was used as a positive control. The antibacterial test was repeatedly carried out three times. Ochrobactrum anthropi KCTC 22833T and Stenotrophomonas maltophilia KCTC 1773T used in the antibacterial test were purchased from Korean Collection for Type Culture (KCTC), and Ochrobactrum intermedium KACC 11952T and Stenotrophomonas nitritireducens KACC 10891T used in the antibacterial test were purchased from Korean Agricultural Culture Collection (KACC). The diameters of clear circular zones of samples 2 to 7 of FIG. 1 were measured by a paper disc diffusion method, and compared to that of gentamicin. […] Particularly, it can be ascertained that the activity of sample 2 (4-(3′,4′-dichlorophenylpiperazin-1-yl) amide betulonic acid) and the activity of sample 7 (4-(4′-trifluoromethylphenylpiperazin-1-yl) amide betulonic acid) are highest.

As for `C=C(C)C1CCC2(C(=O)N3CCN(c4ncccn4)CC3)CCC3(C)C(CCC4C5(C)CCC(=O)C(C)(C)C5CCC43C)C12` (stereo not drawn) [Compound 5 of FIG. 1, 4-(2-pyrimidylpiperazine-1-yl) amide betulonic acid], the “Antibacterial zone of inhibition (mm) S. nitritireducens” value in data set [1] turned out to be 11 mm. The “Antibacterial zone of inhibition (mm) O. intermedium” value in data set [2] was found to be 10 mm. Moreover, the “Antibacterial zone of inhibition (mm) O. anthropi” value in data set [3] is listed as 13 mm. Moreover, the “Antibacterial zone of inhibition (mm) S. maltophila” value in data set [4] was 10 mm.
For the molecule `C=C(C)[C@@H]1CC[C@]2(C(=O)N3CCN(c4ccc(C(F)(F)F)cc4)CC3)CC[C@]3(C)C(CC[C@@H]4[C@@]5(C)CCC(=O)C(C)(C)C5CC[C@]43C)[C@@H]12` (stereo partly drawn) [Compound 6 of FIG. 1, 4-(4′-trifluoromethylphenylpiperazine-1-yl) amide betulonic acid], the “activity (ranking among the samples)” value with four kinds of bacteria is “highest”.
With `C=C(C)[C@@H]1CC[C@]2(C(=O)N3CCN(c4ccccn4)CC3)CC[C@]3(C)[C@H](CC[C@@H]4[C@@]5(C)CCC(=O)C(C)(C)[C@@H]5CC[C@]43C)[C@@H]12` [Compound 4 of FIG. 1, 4-(2-pyridylpiperazine-1-yl) amide betulonic acid], in data set [2], the “Antibacterial zone of inhibition (mm) O. intermedium” value amounted to 10 mm. The “Antibacterial zone of inhibition (mm) S. maltophila” value in data set [4] turned out to be 10 mm.
Regarding gentamicin [reference compound], the “Antibacterial zone of inhibition (mm) S. nitritireducens” value in data set [1] was 21 mm. Further, the “Antibacterial zone of inhibition (mm) O. intermedium” value in data set [2] is 17 mm. In data set [3], the “Antibacterial zone of inhibition (mm) O. anthropi” value stood at 19 mm. In addition, the “Antibacterial zone of inhibition (mm) S. maltophila” value in data set [4] amounted to 16 mm.
With “4-(4′-trifluoromethylphenylpiperazine-1-yl) amide betulonic acid [Compound 6 of FIG. 1]”, the “Antibacterial zone of inhibition (mm) S. nitritireducens” value in data set [1] was 16 mm. In addition, the “Antibacterial zone of inhibition (mm) O. intermedium” value in data set [2] is on record as 14 mm. Moreover, the “Antibacterial zone of inhibition (mm) O. anthropi” value in data set [3] is given as 15 mm. In addition, the “Antibacterial zone of inhibition (mm) S. maltophila” value in data set [4] came to 14 mm.
The melting point is the temperature, or range, at which the solid turns liquid. The term zone of inhibition denotes the size of the clear area around the sample on an inoculated plate. `C=C(C)[C@@H]1CC[C@]2(C(=O)N3CCN(c4ccc(Cl)c(Cl)c4)CC3)CC[C@]3(C)C(CC[C@@H]4[C@@]5(C)CCC(=O)C(C)(C)C5CC[C@]43C)[C@@H]12` (stereo partly drawn) [Compound 2 of FIG. 1, 4-(3′,4′-dichlorophenylpiperazine-1-yl) amide betulonic acid] came in with a melting point of 182 to 183 °C. For the same molecule, the “Antibacterial zone of inhibition (mm) S. nitritireducens” value in data set [1] came out at 15 mm. Besides, in data set [2] (Brucella intermedia, KACC11952T, read-out: Antibacterial zone of inhibition (mm) O. intermedium), the zone of inhibition at 1000 µg/mL was found to be 14 mm. The zone of inhibition at 1000 µg/mL in data set [3] (Brucella anthropi, KCTC22833T, read-out: Antibacterial zone of inhibition (mm) O. anthropi) was found to be 15 mm. Further, the zone of inhibition at 1000 µg/mL in data set [4] (Stenotrophomonas maltophilia, KCTC1773T, read-out: Antibacterial zone of inhibition (mm) S. maltophila) worked out at 13 mm. In the data set with four kinds of bacteria, the “activity (ranking among the samples)” value is listed as “highest”.
Consider `C=C(C)[C@@H]1CC[C@]2(C(=O)N3CCN(c4ccc(F)cc4)CC3)CC[C@]3(C)C(CC[C@@H]4[C@@]5(C)CCC(=O)C(C)(C)C5CC[C@]43C)[C@@H]12` (stereo partly drawn) [Compound 1 of FIG. 1, 4-(4′-fluorophenylpiperazine-1-yl) amide betulonic acid], for which the melting point lay in the range of 151 to 152 °C. Also, the “Antibacterial zone of inhibition (mm) S. nitritireducens” value in data set [1] turned out to be 11 mm. The growth inhibition effect result with four kinds of bacteria is listed as “growth inhibition effect only to Stenotrophomonas nitritireducens”.
